# In patent US10519177B2, “Heterocyclic compounds and uses thereof” (Plexxikon Inc., priority 2013, dated 2019):
# System: bromodomain
# Test: at least one of the bromodomain cell assays of Example 57
# Format: cell-based
# Details: at least one of the bromodomain cell assays described in Example 57; read-out: IC50 in at least one of the bromodomain cell assays
row,Compound,IC50 [µM]
1,"Cc1noc(C)c1-c1cnc2c(-c3ccc(C#N)nc3)cn([C@@H](c3ccccc3)c3ccccn3)c2c1 [P-0720, 5-[6-(3,5-dimethylisoxazol-4-yl)-1-[(S)-phenyl(2-pyridyl)methyl]pyrrolo[3,2-b]pyridin-3-yl]pyridine-2-carbonitrile]",< 10
2,"Cc1noc(C)c1-c1cnc2c(-c3ccc(B(O)O)cc3)cn(CC3CCCCC3)c2c1 [P-0709, [4-[1-(cyclohexylmethyl)-6-(3,5-dimethylisoxazol-4-yl)pyrrolo[3,2-b]pyridin-3-yl]phenyl]boronic acid]",< 10
3,"Cc1noc(C)c1-c1cnc2c(-c3cnn(C)c3)cn([C@@H](c3ccccc3)c3ccccn3)c2c1 [P-0721, 3,5-dimethyl-4-[3-(1-methylpyrazol-4-yl)-1-[(S)-phenyl(2-pyridyl)methyl]pyrrolo[3,2-b]pyridin-6-yl]isoxazole]",< 10
4,"Cc1noc(C)c1-c1cnc2c(-c3ccc(B(O)O)cc3)cn([C@@H](c3ccccc3)c3ccccn3)c2c1 [P-0718, [4-[6-(3,5-dimethylisoxazol-4-yl)-1-[(S)-phenyl(2-pyridyl)methyl]pyrrolo[3,2-b]pyridin-3-yl]phenyl]boronic acid]",< 10
5,"Cc1noc(C)c1-c1cnc2[nH]cc(C(c3ccccn3)c3ccccn3)c2c1 [P-0733, 4-[3-[bis(2-pyridyl)methyl]-1H-pyrrolo[2,3-b]pyridin-5-yl]-3,5-dimethyl-isoxazole]",< 10
6,"Cc1noc(C)c1-c1cnc2c(-c3ccc(C(=O)OC(C)C)cc3)cn([C@H](c3ccccc3)c3ccccn3)c2c1 [P-0728, isopropyl 4-[6-(3,5-dimethylisoxazol-4-yl)-1-[(R)-phenyl(2-pyridyl)methyl]pyrrolo[3,2-b]pyridin-3-yl]benzoate]",< 10
7,"Cc1noc(C)c1-c1cnc2c(-c3ccc(C(=O)O)cc3)cn(C(c3ccccc3)c3ccccn3)c2c1 (centres unmarked) [P-0611, 4-[6-(3,5-dimethylisoxazol-4-yl)-1-[phenyl(2-pyridyl)methyl]pyrrolo[3,2-b]pyridin-3-yl]benzoic acid]",< 10
8,"Cc1noc(C)c1-c1cnc2c(-c3ccc(CO)cc3)cn(CC3CCCCC3)c2c1 [P-0704, [4-[1-(cyclohexylmethyl)-6-(3,5-dimethylisoxazol-4-yl)pyrrolo[3,2-b]pyridin-3-yl]phenyl]methanol]",< 10
9,"Cc1noc(C)c1-c1ccc2c(-c3ccc(C(=O)O)cc3)cn([C@@H](c3ccccc3)c3ccccn3)c2c1 [P-0751, 4-[6-(3,5-dimethylisoxazol-4-yl)-1-[(S)-phenyl(2-pyridyl)methyl]indol-3-yl]benzoic acid]",< 10
10,"Cc1noc(C)c1-c1cnc2c(-c3cnn(C)c3)cn([C@H](c3ccccc3)c3ccccn3)c2c1 [P-0732, 3,5-dimethyl-4-[3-(1-methylpyrazol-4-yl)-1-[(R)-phenyl(2-pyridyl)methyl]pyrrolo[3,2-b]pyridin-6-yl]isoxazole]",< 10
11,"Cc1noc(C)c1-c1cnc2c(-c3ccc(C(C)(C)C)cc3)cn(Cc3ccccn3)c2c1 [P-0804, 4-[3-(4-tert-butylphenyl)-1-(2-pyridylmethyl)pyrrolo[3,2-b]pyridin-6-yl]-3,5-dimethyl-isoxazole]",< 10
12,"Cc1ccc(-c2cn([C@H](c3ccccc3)c3ccccn3)c3cc(-c4c(C)noc4C)cnc23)cc1 [P-0725, 3,5-dimethyl-4-[1-[(R)-phenyl(2-pyridyl)methyl]-3-(p-tolyl)pyrrolo[3,2-b]pyridin-6-yl]isoxazole]",< 10
13,"Cc1noc(C)c1-c1cnc2c(F)cn([C@@H](c3ccccc3)c3ccccn3)c2c1 [P-0712, 4-[3-fluoro-1-[(S)-phenyl(2-pyridyl)methyl]pyrrolo[3,2-b]pyridin-6-yl]-3,5-dimethyl-isoxazole]",< 10
14,"Cc1noc(C)c1-c1cnc2c(-c3ccc(C(=O)O)cc3)cn(C(c3ccccc3)c3ccccc3)c2c1 [P-0620, 4-[1-benzhydryl-6-(3,5-dimethylisoxazol-4-yl)pyrrolo[3,2-b]pyridin-3-yl]benzoic acid]",< 10
15,"C[C@@H](c1ccccn1)n1cc(-c2ccc(C(=O)O)cc2)c2ncc(-c3cc(Cl)c(=O)n(C)c3)cc21 [P-0766, 4-[6-(5-chloro-1-methyl-6-oxo-3-pyridyl)-1-[(1S)-1-(2-pyridyl)ethyl]pyrrolo[3,2-b]pyridin-3-yl]benzoic acid]",< 10
16,"COC(=O)c1ccc(-c2cn(CC3CC4CC4C3)c3cc(-c4c(C)noc4C)cnc23)cc1 (centres unmarked) [P-0609, methyl 4-[1-(3-bicyclo[3.1.0]hexanylmethyl)-6-(3,5-dimethylisoxazol-4-yl)pyrrolo[3,2-b]pyridin-3-yl]benzoate]",< 10
17,"Cc1noc(C)c1-c1cnc2c(-c3ccc(CC(=O)O)cc3)cn(CC3(C)CCCCC3)c2c1 [P-0781, 2-[4-[6-(3,5-dimethylisoxazol-4-yl)-1-[(1-methylcyclohexyl)methyl]pyrrolo[3,2-b]pyridin-3-yl]phenyl]acetic acid]",< 10
18,"Cc1ccc(-c2cn([C@H](c3ccccn3)C3CCCCC3)c3cc(-c4c(C)noc4C)cnc23)cc1 [P-0818, 4-[1-[(S)-cyclohexyl(2-pyridyl)methyl]-3-(p-tolyl)pyrrolo[3,2-b]pyridin-6-yl]-3,5-dimethyl-isoxazole]",< 10

row,Compound,IC50 [µM]
1,"CCOC(=O)c1ccc(-c2cn(CC3CCCCC3)c3cc(-c4c(C)noc4C)cnc23)cc1 [P-0707, ethyl 4-[1-(cyclohexylmethyl)-6-(3,5-dimethylisoxazol-4-yl)pyrrolo[3,2-b]pyridin-3-yl]benzoate]",< 10
2,"Cc1ccc(-c2cn([C@@H](c3ccccc3)c3ccccn3)c3cc(-c4c(C)noc4C)cnc23)cc1 [P-0714, 3,5-dimethyl-4-[1-[(S)-phenyl(2-pyridyl)methyl]-3-(p-tolyl)pyrrolo[3,2-b]pyridin-6-yl]isoxazole]",< 10
3,"Cc1noc(C)c1-c1cnc2c(-c3ccc(C(C)(C)C(=O)O)cc3)cn(CC3CCOCC3)c2c1 [P-0773, 2-[4-[6-(3,5-dimethylisoxazol-4-yl)-1-(tetrahydropyran-4-ylmethyl)pyrrolo[3,2-b]pyridin-3-yl]phenyl]-2-methyl-propanoic acid]",< 10
4,"Cc1noc(C)c1-c1cnc2c(-c3ccc(C(C)(C)C)cc3)cn([C@@H](c3ccccc3)c3ccccn3)c2c1 [P-0813, 4-[3-(4-tert-butylphenyl)-1-[(S)-phenyl(2-pyridyl)methyl]pyrrolo[3,2-b]pyridin-6-yl]-3,5-dimethyl-isoxazole]",< 10
5,"Cc1noc(C)c1-c1cnc2c(-c3ccc(CC(=O)O)cc3)cn(CC3CCOCC3)c2c1 [P-0771, 2-[4-[6-(3,5-dimethylisoxazol-4-yl)-1-(tetrahydropyran-4-ylmethyl)pyrrolo[3,2-b]pyridin-3-yl]phenyl]acetic acid]",< 10
6,"Cc1cc(-c2cnc3c(-c4ccc(C(=O)O)cc4)cn(CC4CCC(F)(F)CC4)c3c2)cn(C)c1=O [P-0613, 4-[1-[(4,4-difluorocyclohexyl)methyl]-6-(1,5-dimethyl-6-oxo-3-pyridyl)pyrrolo[3,2-b]pyridin-3-yl]benzoic acid]",< 10
7,"Cc1noc(C)c1-c1cnc2c(-c3ccc(C(=O)O)cc3)cn(CC3CCOCC3)c2c1 [P-0769, 4-[6-(3,5-dimethylisoxazol-4-yl)-1-(tetrahydropyran-4-ylmethyl)pyrrolo[3,2-b]pyridin-3-yl]benzoic acid]",< 10
8,"Cc1noc(C)c1-c1ccc2c(-c3ccc(CO)cc3)cn([C@@H](c3ccccc3)c3ccccn3)c2c1 [P-0753, [4-[6-(3,5-dimethylisoxazol-4-yl)-1-[(S)-phenyl(2-pyridyl)methyl]indol-3-yl]phenyl]methanol]",< 10
9,"Cc1noc(C)c1-c1cnc2c(-c3ccc(C4(C(=O)O)CC4)cc3)cn(CC3(C)CCCCC3)c2c1 [P-0782, 1-[4-[6-(3,5-dimethylisoxazol-4-yl)-1-[(1-methylcyclohexyl)methyl]pyrrolo[3,2-b]pyridin-3-yl]phenyl]cyclopropanecarboxylic acid]",< 10
10,"C[C@@H](c1ccccn1)n1cc(-c2ccc(C(=O)O)cc2)c2ccc(-c3cc(Cl)c(=O)n(C)c3)cc21 [P-0765, 4-[6-(5-chloro-1-methyl-6-oxo-3-pyridyl)-1-[(1S)-1-(2-pyridyl)ethyl]indol-3-yl]benzoic acid]",< 10
11,"[2H]C([2H])([2H])c1ccc(-c2cn([C@@H](c3ccccc3)c3ccccn3)c3cc(-c4c(C)noc4C)cnc23)cc1 [P-0786, 3,5-dimethyl-4-[1-[(S)-phenyl(2-pyridyl)methyl]-3-[4-(trideuteriomethyl)phenyl]pyrrolo[3,2-b]pyridin-6-yl]isoxazole]",< 10
12,"Cc1noc(C)c1-c1ccc2c(-c3ccc(C(=O)O)cc3)cn([C@H](c3ccccc3)c3ccccn3)c2c1 [P-0755, 4-[6-(3,5-dimethylisoxazol-4-yl)-1-[(R)-phenyl(2-pyridyl)methyl]indol-3-yl]benzoic acid]",< 10
13,"Cc1noc(C)c1-c1cnc2c(c1)c(C(c1ccccn1)c1ccccn1)cn2-c1ccc(C(=O)O)cn1 [P-0737, 6-[3-[bis(2-pyridyl)methyl]-5-(3,5-dimethylisoxazol-4-yl)pyrrolo[2,3-b]pyridin-1-yl]pyridine-3-carboxylic acid]",< 10
14,"Cc1noc(C)c1-c1cnc2c(F)cn([C@H](c3ccccc3)c3ccccn3)c2c1 [P-0723, 4-[3-fluoro-1-[(R)-phenyl(2-pyridyl)methyl]pyrrolo[3,2-b]pyridin-6-yl]-3,5-dimethyl-isoxazole]",< 10
15,"Cc1noc(C)c1-c1cnc2c(-c3ccc(C(=O)O)cc3)cn([C@H](c3ccccn3)C3CCCCC3)c2c1 [P-0815, 4-[1-[(S)-cyclohexyl(2-pyridyl)methyl]-6-(3,5-dimethylisoxazol-4-yl)pyrrolo[3,2-b]pyridin-3-yl]benzoic acid]",< 10
16,"Cc1noc(C)c1-c1cnc2c(-c3ccc(S(C)(=O)=O)cc3)cn(CC3CCC(F)(F)CC3)c2c1 [P-0619, 4-[1-[(4,4-difluorocyclohexyl)methyl]-3-(4-methylsulfonylphenyl)pyrrolo[3,2-b]pyridin-6-yl]-3,5-dimethyl-isoxazole]",< 10
17,"Cc1ccc(-c2cn([C@H](c3ccccn3)C3CCCC3)c3cc(-c4c(C)noc4C)cnc23)cc1 [P-0822, 4-[1-[(S)-cyclopentyl(2-pyridyl)methyl]-3-(p-tolyl)pyrrolo[3,2-b]pyridin-6-yl]-3,5-dimethyl-isoxazole]",< 10
